The structures appear in SMILES notation. Structures can show the parent of a compound that is named as a salt. Where two headings read alike, the source gives them in different places.

This test has as its system EVSA-T (human breast carcinoma). As to the kind of experiment: Anti-proliferative activity, Alamar Blue assay, EVSA-T. Type of test: cell-based.
[1] abbreviates: Homo sapiens, EVSA-T, 72 h, EVSA-T cell line, 72 hours, Alamar Blue; read-out: EVSA-T prolif.
Setting [2] is: Homo sapiens, EVSA-T; read-out: EC50 in EVSA-T cell line assays.
The mark [3] stands for this setting: Homo sapiens; EVSA-T cell line, 72 hours, Alamar Blue; read-out: EVSA-T prolif.

Experimental: Anti-Proliferative Activity
The method is based on the ability of viable cells to reduce resazurin to its fluorescent product resorufin. For each proliferation assay cells are plated onto 96 well plates and allowed to recover for 16 hours prior to the addition of inhibitor compounds (in 0.1% DMSO v/v) for a further 72 hours. […] The anti-proliferative activities of compounds of the invention can be determined by measuring the ability of the compounds to inhibit growth in 3 cancer cell lines: • EVSA-T (human breast carcinoma) DSMZ cat. no.

As to `C[C@@H]1CN(CC(=O)N2CC(C)(C)c3nnc(Cc4ccc(F)cc4F)cc32)[C@@H](CN2Cc3c(C#N)cccc3C2=O)CN1` [Example 119, 2-{[(2R,5R)-1-(2-{3-[(2,4-Difluorophenyl)methyl]-7,7-dimethyl-5H,6H,7H-pyrrolo[3,2-c]pyridazin-5-yl}-2-oxoethyl)-5-methylpiperazin-2-yl]methyl}-1-oxo-2,3-dihydro-1H-isoindole-4-carbonitrile dihydrochloride], the EC50 reads like this: under setting [1], 7.5 nM; under setting [2], below 1000 nM.

For `C[C@@H]1CN(CC(=O)N2CC(C)(C)c3nnc(Cc4ccc(F)cc4F)cc32)[C@@H](CN2Cc3ncccc3C2=O)CN1` [Example 64, 6-{[(2R,5R)-1-(2-{3-[(2,4-Difluorophenyl)methyl]-7,7-dimethyl-5H,6H,7H-pyrrolo[3,2-c]pyridazin-5-yl}-2-oxoethyl)-5-methylpiperazin-2-yl]methyl}-5H,6H,7H-pyrrolo[3,4-b]pyridin-5-one], the EC50 under setting [2] is below 1000 nM. Regarding `C[C@@H]1CN(CC(=O)N2CC(C)(C)c3nnc(Cc4ccc(F)cc4)cc32)[C@@H](CN2C[C@H](C)OCC2=O)CN1` [Example 53, (6S)-4-{[(2R,5R)-1-(2-{3-[(4-Fluorophenyl)methyl]-7,7-dimethyl-5H,6H,7H-pyrrolo[3,2-c]pyridazin-5-yl}-2-oxoethyl)-5-methylpiperazin-2-yl]methyl}-6-methylmorpholin-3-one], under setting [2], the EC50 is below 1000 nM. Turning to `C[C@H]1CC(=O)N(C[C@H]2CN[C@H](C)CN2CC(=O)N2CC(C)(C)c3nnc(Cc4ccc(F)cc4)cc32)C1` [Example 47, (4S)-1-{[(2R,5R)-1-(2-{3-[(4-Fluorophenyl)methyl]-7,7-dimethyl-5H,6H,7H-pyrrolo[3,2-c]pyridazin-5-yl}-2-oxoethyl)-5-methylpiperazin-2-yl]methyl}-4-methylpyrrolidin-2-one dihydrochloride], the EC50 is, setting by setting: under setting [1], 2.9 nM; under setting [2], below 1000 nM.

Turning to `C[C@@H]1CN(CC(=O)N2CC(C)(C)c3cnc(Cc4ccc(F)cc4F)cc32)[C@@H](CN2Cc3ncccc3C2=O)CN1` [Example 63, 6-{[(2R,5R)-1-(2-{6-[(2,4-Difluorophenyl)methyl]-3,3-dimethyl-1H,2H,3H-pyrrolo[3,2-c]pyridin-1-yl}-2-oxoethyl)-5-methylpiperazin-2-yl]methyl}-5H,6H,7H-pyrrolo[3,4-b]pyridin-5-one], the EC50 under setting [2] was below 1000 nM. As for `CCCC(F)(F)c1cc2c(nn1)C(C)(C)CN2C(=O)CN1C[C@@H](C)NC[C@@H]1CN1C[C@H](C)OCC1=O` [Example 57, (6S)-4-{[(2R,5R)-1-{2-[3-(1,1-Difluorobutyl)-7,7-dimethyl-5H,6H,7H-pyrrolo[3,2-c]pyridazin-5-yl]-2-oxoethyl}-5-methylpiperazin-2-yl]methyl}-6-methylmorpholin-3-one], the EC50 under setting [2] is below 1000 nM. For the compound `C[C@@H]1CN(CC(=O)N2CC(C)(C)c3ncc(Cc4ccc(F)cc4)cc32)[C@@H](CN2CCC(F)(F)C2=O)CN1` [Example 11, 3,3-Difluoro-1-{[(2R,5R)-1-(2-{6-[(4-fluorophenyl)methyl]-3,3-dimethyl-1H,2H,3H-pyrrolo[3,2-b]pyridin-1-yl}-2-oxoethyl)-5-methylpiperazin-2-yl]methyl}pyrrolidin-2-one dihydrochloride], under setting [3], the EC50 was 4.3 nM. On to `CCCC(F)(F)c1cc2c(nn1)C(C)(C)CN2C(=O)CN1C[C@@H](C)NC[C@@H]1CN1C(=O)CO[C@@H](C)[C@H]1C` [Example 58, (5R,6S)-4-{[(2R,5R)-1-{2-[3-(1,1-Difluorobutyl)-7,7-dimethyl-5H,6H,7H-pyrrolo[3,2-]pyridazin-5-yl]-2-oxoethyl}-5-methylpiperazin-2-yl]methyl}-5,6-dimethylmorpholin-3-one], for which, under setting [2], the EC50 was below 1000 nM. Take `C[C@@H]1CN(CC(=O)N2CC(C)(C)c3ncc(Cc4ccc(F)cc4)cc32)[C@@H](CN2C(=O)CO[C@@H](C)[C@H]2C)CN1` [Example 25, (5R,6S)-4-{[(2R,5R)-1-(2-{6-[(4-Fluorophenyl)methyl]-3,3-dimethyl-1H,2H,3H-pyrrolo[3,2-b]pyridin-1-yl}-2-oxoethyl)-5-methylpiperazin-2-yl]methyl}-5,6-dimethylmorpholin-3-one, dihydrochloride]: the EC50 reads like this: under setting [1], 1.9 nM; under setting [2], below 1000 nM. Turning to `CCC1CC(=O)N(C[C@H]2CN[C@H](C)CN2CC(=O)N2CC(C)(C)c3cnc(Cc4ccc(F)cc4F)cc32)C1` (single isomer, unassigned) [Example 87, (4R or 4S)-1-{[(2R,5R)-1-(2-{6-[(2,4-Difluorophenyl)methyl]-3,3-dimethyl-1H,2H,3H-pyrrolo[3,2-c]pyridin-1-yl}-2-oxoethyl)-5-methylpiperazin-2-yl]methyl}-4-ethylpyrrolidin-2-one dihydrochloride], where the note is “EVSA-T cell line, 72 hours, Alamar Blue; dihydrochloride; read-out: EVSA-T prolif”, the EC50 is 1.2 nM.

In the case of `C[C@@H]1CN(CC(=O)N2CC(C)(C)c3ncc(Cc4ccc(F)cc4)cc32)[C@@H](CN2Cc3cccnc3C2=O)CN1` [Example 95, 6-{[(2R,5R)-1-(2-{6-[(4-Fluorophenyl)methyl]-3,3-dimethyl-1H,2H,3H-pyrrolo[3,2-b]pyridin-1-yl}-2-oxoethyl)-5-methylpiperazin-2-yl]methyl}-5H,6H,7H-pyrrolo[3,4-b]pyridin-7-one dihydrochloride], the EC50 under setting [3] amounted to 0.71 nM. As to `C[C@@H]1CN(CC(=O)N2CC(C)(C)c3nnc(Cc4ccc(F)cc4F)cc32)[C@@H](CN2Cc3ccccc3C2=O)CN1` [Example 79, 2-{[(2R,5R)-1-(2-{3-[(2,4-Difluorophenyl)methyl]-7,7-dimethyl-5H,6H,7H-pyrrolo[3,2-c]pyridazin-5-yl}-2-oxoethyl)-5-methylpiperazin-2-yl]methyl}-2,3-dihydro-1H-isoindol-1-one dihydrochloride], the EC50 is, setting by setting: (Homo sapiens, EVSA-T, read-out: EC50 in EVSA-T cell line assays) below 1000 nM; under setting [3], 0.2 nM. Take `CCCC(F)(F)c1cc2c(nn1)C(C)(C)CN2C(=O)CN1C[C@@H](C)NC[C@@H]1CN1CC(C)(C)CC1=O` [Example 55, 1-{[(2R,5R)-1-{2-[3-(1,1-Difluorobutyl)-7,7-dimethyl-5H,6H,7H-pyrrolo[3,2-c]pyridazin-5-yl]-2-oxoethyl}-5-methylpiperazin-2-yl]methyl}-4,4-dimethylpyrrolidin-2-one]: under setting [2], the EC50 is below 1000 nM.

For `C[C@@H]1CN(CC(=O)N2CC(C)(C)c3ncc(Cc4ccc(F)cc4)cc32)[C@@H](CN2CC(=O)NCC2=O)CN1` [Example 22, 1-{[(2R,5R)-1-(2-{6-[(4-Fluorophenyl)methyl]-3,3-dimethyl-1H,2H,3H-pyrrolo[3,2-b]pyridin-1-yl}-2-oxoethyl)-5-methylpiperazin-2-yl]methyl}piperazine-2,5-dione], the EC50 by setting is: under setting [1], 9.2 nM; under setting [2], below 1000 nM. As for `CCC1CC(=O)N(C[C@H]2CN[C@H](C)CN2CC(=O)N2CC(C)(C)c3ncc(Cc4ccc(F)cc4)cc32)C1` (single isomer, unassigned) [Example 82, (4R or 4S)-4-Ethyl-1-{[(2R,5R)-1-(2-{6-[(4-fluorophenyl)methyl]-3,3-dimethyl-1H,2H,3H-pyrrolo[3,2-b]pyridin-1-yl}-2-oxoethyl)-5-methylpiperazin-2-yl]methyl}pyrrolidin-2-one dihydrochloride], the EC50 runs as follows: under setting [1], 1.5 nM; under setting [2], below 1000 nM.

For the compound `C[C@H]1CC(=O)N(C[C@H]2CN[C@H](C)CN2CC(=O)N2CC(C)(C)c3ncc(Cc4ccc(F)cc4)cc32)C1` [Example 17, (4S)-1-{[(2R,5R)-1-(2-{6-[(4-Fluorophenyl)methyl]-3,3-dimethyl-1H,2H,3H-pyrrolo[3,2-b]pyridin-1-yl}-2-oxoethyl)-5-methylpiperazin-2-yl]methyl}-4-methylpyrrolidin-2-one dihydrochloride], the EC50 under setting [1] was found to be 3.1 nM and the EC50 under setting [2] was below 1000 nM.

Consider `CCCC(F)(F)c1cnc2c(c1)N(C(=O)CN1C[C@@H](C)NC[C@@H]1CN1Cc3ncccc3C1=O)CC2(C)C` [Example 66, 6-{[(2R,5R)-1-{2-[6-(1,1-Difluorobutyl)-3,3-dimethyl-1H,2H,3H-pyrrolo[3,2-b]pyridin-1-yl]-2-oxoethyl}-5-methylpiperazin-2-yl]methyl}-5H,6H,7H-pyrrolo[3,4-b]pyridin-5-one], for which the EC50 under setting [2] is below 1000 nM. For the compound `C[C@@H]1CN(CC(=O)N2CC(C)(C)c3ncc(Cc4ccc(F)cc4F)cc32)[C@@H](CN2Cc3ncccc3C2=O)CN1` [Example 62, 6-{[(2R,5R)-1-(2-{6-[(2,4-Difluorophenyl)methyl]-3,3-dimethyl-1H,2H,3H-pyrrolo[3,2-b]pyridin-1-yl}-2-oxoethyl)-5-methylpiperazin-2-yl]methyl}-5H,6H,7H-pyrrolo[3,4-b]pyridin-5-one], under setting [2], the EC50 was below 1000 nM. Take `C[C@@H]1CN(CC(=O)N2CC(C)(C)c3ncc(Cc4ccc(F)cc4F)cc32)[C@@H](CN2Cc3ccccc3C2=O)CN1` [Example 76, 2-{[(2R,5R)-1-(2-{6-[(2,4-Difluorophenyl)methyl]-3,3-dimethyl-1H,2H,3H-pyrrolo[3,2-b]pyridin-1-yl}-2-oxoethyl)-5-methylpiperazin-2-yl]methyl}-2,3-dihydro-1H-isoindol-1-one dihydrochloride]: the EC50 under setting [3] came out at 2.5 nM. On to `CCC1CC(=O)N(C[C@H]2CN[C@H](C)CN2CC(=O)N2CC(C)(C)c3cnc(Cc4ccc(F)cc4F)cc32)C1` (single isomer, unassigned) [Example 83, (4R or 4S)-1-{[(2R,5R)-1-(2-{6-[(2,4-Difluorophenyl)methyl]-3,3-dimethyl-1H,2H,3H-pyrrolo[3,2-c]pyridin-1-yl}-2-oxoethyl)-5-methylpiperazin-2-yl]methyl}-4-ethylpyrrolidin-2-one dihydrochloride], for which the EC50 was 1.1 nM under setting [1] and below 1000 nM under setting [2]. On to `C[C@@H]1CN(CC(=O)N2CC(C)(C)c3nnc(Cc4ccc(F)cc4F)cc32)[C@@H](CN2Cc3c(F)cccc3C2=O)CN1` [Example 104, 2-{[(2R,5R)-1-(2-{3-[(2,4-Difluorophenyl)methyl]-7,7-dimethyl-5H,6H,7H-pyrrolo[3,2-c]pyridazin-5-yl}-2-oxoethyl)-5-methylpiperazin-2-yl]methyl}-4-fluoro-2,3-dihydro-1H-isoindol-1-one dihydrochloride], for which the EC50 under setting [3] is 0.12 nM.

Source of the values: US9617283B2, “Bicyclic heterocycle compounds and their uses in therapy” (ASTEX THERAPEUTICS LIMITED, priority 2012, dated 2017).
